Where two headings read alike, the source gives them in different places.

This experiment addresses T1, rat CB-1 receptor (Rattus norvegicus, UniProt P20272).
T1 construct: The tissue obtained from the brain of SD rats was homogenized; from tissue; host or cells: SD rat brain membrane homogenate
Put plainly: rat cannabinoid-1 receptor (CB1R) binding affinity assay. As for the experimental part:
The tissue obtained from the brain of SD rats was homogenized with a Dounce homogenate system in TME(50 mM Tris, 3 mM MgCl2 and 1 mM EDTA, pH 7.4) at 4° C., and the homogenate was centrifuged at 48,000 g for 30 min. at 4° C. The pellet was resuspended in 5 ml of TME and the suspension was divided into aliquots and stored at −70° C. until its use in the following assay.
The tissue concentrations were determined by Bradford protein analysis, and 148 μl of brain tissue of the required concentration was added to the plate. The plate was covered and placed in a 30° C. incubator for 60 min, and then transformed on GF/B filtermat pretreated in polyethylenimine (PEI) using a cell harvester. Each filter was washed five times and dried at 60° C. for 1 hr. Then, the degree of radioactivity retained by the filter was measured using Wallac Microbeta™ (PerkinElmer Life Sciences, Inc., Massachusetts, U.S.A.) and the activity of the compound for inhibiting CB1 receptor was determined therefrom.

The mark [1] stands for this setting: [3H]CP-55940 radioligand, SD rat brain tissue homogenate, 30° C., 60 min, read-out: IC50.

T1 sequence (P20272 whole entry): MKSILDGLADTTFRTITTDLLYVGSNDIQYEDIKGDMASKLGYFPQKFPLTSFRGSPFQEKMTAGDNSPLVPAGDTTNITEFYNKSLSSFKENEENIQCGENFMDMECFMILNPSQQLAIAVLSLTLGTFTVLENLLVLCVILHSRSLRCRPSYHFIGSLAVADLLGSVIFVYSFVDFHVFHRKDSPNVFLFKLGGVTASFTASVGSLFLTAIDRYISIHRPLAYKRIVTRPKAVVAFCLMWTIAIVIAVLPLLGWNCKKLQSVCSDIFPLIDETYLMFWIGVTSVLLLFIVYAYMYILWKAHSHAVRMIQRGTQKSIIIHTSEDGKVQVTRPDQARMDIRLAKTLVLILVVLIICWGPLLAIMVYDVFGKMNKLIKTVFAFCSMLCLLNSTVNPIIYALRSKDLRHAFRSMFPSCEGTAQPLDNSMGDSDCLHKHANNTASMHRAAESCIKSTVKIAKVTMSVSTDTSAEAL

For `CSc1c(-c2nnc(C(C)(C)C)o2)nn(-c2ccc(Cl)cc2Cl)c1-c1ccc(Cl)cc1` [Example 1, 2-tert-butyl-5-(5-(4-chlorophenyl)-1-(2,4-dichlorophenyl)-4-(methylthio)-1H-pyrazol-3-yl)-1,3,4-oxadiazole], under setting [1], the IC50 was 6.26 nM.

`CSc1c(-c2nnc(C3(C(F)(F)F)CC3)o2)nn(-c2ccc(Cl)cc2Cl)c1-c1ccc(Cl)cc1` [Example 2, 2-(5-(4-chlorophenyl)-1-(2,4-dichlorophenyl)-4-(methylthio)-1H-pyrazol-3-yl)-5-(1-(trifluoromethyl)cyclopropyl)-1,3,4-oxadiazole]: the half-maximal inhibitory concentration (IC50) under setting [1] came out at 6.63 nM.

As to `CSc1c(-c2nnc(C3(C(F)(F)F)CCC3)o2)nn(-c2ccc(Cl)cc2Cl)c1-c1ccc(Cl)cc1` [Example 3, 2-(5-(4-chlorophenyl)-1-(2,4-dichlorophenyl)-4-(methylthio)-1H-pyrazol-3-yl)-5-(1-(trifluoromethyl)cyclobutyl)-1,3,4-oxadiazole], the half-inhibitory concentration (IC50) under setting [1] is 9.71 nM.

With `CSc1c(-c2nnc(C3(c4ccc(Cl)cc4)CC3)o2)nn(-c2ccc(Cl)cc2Cl)c1-c1ccc(Cl)cc1` [Example 4, 2-(5-(4-chlorophenyl)-1-(2,4-dichlorophenyl)-4-(methylthio)-1H-pyrazol-3-yl)-5-(1-(4-chlorophenyl)cyclopropyl)-1,3,4-oxadiazole], under setting [1], the half-inhibitory concentration (IC50) stood at 5.26 nM.

Regarding `CSc1c(-c2nnc(C3(C(F)(F)F)CC3)o2)nn(-c2ccccc2Cl)c1-c1ccc(Cl)cc1` [Example 6, 2-(1-(2-chlorophenyl)-5-(4-chlorophenyl)-4-(methylthio)-1H-pyrazol-3-yl)-5-(1-(trifluoromethyl)cyclopropyl)-1,3,4-oxadiazole], the half-maximal inhibitory concentration (IC50) under setting [1] was 8.3 nM.

As to `CSc1c(-c2nnc(C3(C(F)(F)F)CCC3)o2)nn(-c2ccccc2Cl)c1-c1ccc(Cl)cc1` [Example 7, 2-(1-(2-chlorophenyl)-5-(4-chlorophenyl)-4-(methylthio)-1H-pyrazol-3-yl)-5-(1-(trifluoromethyl)cyclobutyl)-1,3,4-oxadiazole], the IC50 under setting [1] is 4.21 nM.

Regarding `CSc1c(-c2nnc(C3(c4ccc(Cl)cc4)CC3)o2)nn(-c2ccccc2Cl)c1-c1ccc(Cl)cc1` [Example 8, 2-(1-(2-chlorophenyl)-5-(4-chlorophenyl)-4-(methylthio)-1H-pyrazol-3-yl)-5-(1-(4-chlorophenyl)cyclopropyl)-1,3,4-oxadiazole], the half-maximal inhibitory concentration (IC50) under setting [1] worked out at 4.61 nM.

In the case of `CSc1c(-c2nnc(C(C)(C)C)o2)nn(-c2ccc(Cl)cc2Cl)c1-c1ccc(Br)cc1` [Example 9, 2-(5-(4-bromophenyl)-1-(2,4-dichlorophenyl)-4-(methylthio)-1H-pyrazol-3-yl)-5-tert-butyl-1,3,4-oxadiazole], the IC50 under setting [1] stood at 5.5 nM.

In the case of `CSc1c(-c2nnc(C3(C(F)(F)F)CC3)o2)nn(-c2ccc(Cl)cc2Cl)c1-c1ccc(Br)cc1` [Example 10, 2-(5-(4-bromophenyl)-1-(2,4-dichlorophenyl)-4-(methylthio)-1H-pyrazol-3-yl)-5-(1-(trifluoromethyl)cyclopropyl)-1,3,4-oxadiazole], the half-inhibitory concentration (IC50) under setting [1] was 7.95 nM.

As to `CSc1c(-c2nnc(C3(C(F)(F)F)CCC3)o2)nn(-c2ccc(Cl)cc2Cl)c1-c1ccc(Br)cc1` [Example 11, 2-(5-(4-bromophenyl)-1-(2,4-dichlorophenyl)-4-(methylthio)-1H-pyrazol-3-yl)-5-(1-(trifluoromethyl)cyclobutyl)-1,3,4-oxadiazole], the IC50 under setting [1] is 8.44 nM.

For `CSc1c(-c2nnc(C3(c4ccc(Cl)cc4)CC3)o2)nn(-c2ccc(Cl)cc2Cl)c1-c1ccc(Br)cc1` [Example 12, 2-(5-(4-bromophenyl)-1-(2,4-dichlorophenyl)-4-(methylthio)-1H-pyrazol-3-yl)-5-(1-(4-chlorophenyl)cyclopropyl)-1,3,4-oxadiazole], the 50% inhibitory concentration (IC50) under setting [1] is 9.23 nM.

As to `CSc1c(-c2nnc(C3(C(F)(F)F)CC3)o2)nn(-c2ccccc2Cl)c1-c1ccc(Br)cc1` [Example 14, 2-(5-(4-bromophenyl)-1-(2-chlorophenyl)-4-(methylthio)-1H-pyrazol-3-yl)-5-(1-(trifluoromethyl)cyclopropyl)-1,3,4-oxadiazole], the half-inhibitory concentration (IC50) is 4.11 nM.

`CSc1c(-c2nnc(C(C)(C)C)s2)nn(-c2ccc(Cl)cc2Cl)c1-c1ccc(Cl)cc1` [Example 21, 2-tert-butyl-5-(5-(4-chlorophenyl)-1-(2,4-dichlorophenyl)-4-(methylthio)-1H-pyrazol-3-yl)-1,3,4-thiadiazole]: the IC50 under setting [1] was found to be 5.19 nM.

Regarding `CSc1c(-c2nnc(C3(C(F)(F)F)CC3)s2)nn(-c2ccc(Cl)cc2Cl)c1-c1ccc(Cl)cc1` [Example 22, 2-(5-(4-chlorophenyl)-1-(2,4-dichlorophenyl)-4-(methylthio)-1H-pyrazol-3-yl)-5-(1-(trifluoromethyl)cyclopropyl)-1,3,4-thiadiazole], the IC50 under setting [1] was found to be 10.9 nM.

`CSc1c(-c2nnc(C3(C(F)(F)F)CCC3)s2)nn(-c2ccc(Cl)cc2Cl)c1-c1ccc(Cl)cc1` [Example 23, 2-(5-(4-chlorophenyl)-1-(2,4-dichlorophenyl)-4-(methylthio)-1H-pyrazol-3-yl)-5-(1-(trifluoromethyl)cyclobutyl)-1,3,4-thiadiazole]: the IC50 was 7.31 nM.

Regarding `CSc1c(-c2nnc(C3(c4ccc(Cl)cc4)CC3)s2)nn(-c2ccc(Cl)cc2Cl)c1-c1ccc(Cl)cc1` [Example 24, 2-(5-(4-chlorophenyl)-1-(2,4-dichlorophenyl)-4-(methylthio)-1H-pyrazol-3-yl)-5-(1-(4-chlorophenyl)cyclopropyl)-1,3,4-thiadiazole], the IC50 came out at 6.66 nM.

`CSc1c(-c2nnc(C3(C(F)(F)F)CC3)s2)nn(-c2ccc(Cl)cc2Cl)c1-c1ccc(Br)cc1` [Example 30, 2-(5-(4-bromophenyl)-1-(2,4-dichlorophenyl)-4-(methylthio)-1H-pyrazol-3-yl)-5-(1-(trifluoromethyl)cyclopropyl)-1,3,4-thiadiazole]: the IC50 under setting [1] was determined as 14.8 nM.

With `CSc1c(-c2nnc(C(C)(C)C)s2)nn(-c2ccccc2Cl)c1-c1ccc(Br)cc1` [Example 33, 2-(5-(4-bromophenyl)-1-(2-chlorophenyl)-4-(methylthio)-1H-pyrazol-3-yl)-5-tert-butyl-1,3,4-thiadiazole], under setting [1], the half-maximal inhibitory concentration (IC50) came to 5.7 nM.

As for `CSc1c(-c2nnc(C3(C(F)(F)F)CC3)s2)nn(-c2ccccc2Cl)c1-c1ccc(Br)cc1` [Example 34, 2-(5-(4-bromophenyl)-1-(2-chlorophenyl)-4-(methylthio)-1H-pyrazol-3-yl)-5-(1-(trifluoromethyl)cyclopropyl)-1,3,4-thiadiazole], the IC50 under setting [1] came out at 17.1 nM.

On to `CSc1c(-c2nnc(C3(C(F)(F)F)CCC3)s2)nn(-c2ccccc2Cl)c1-c1ccc(Br)cc1` [Example 35, 2-(5-(4-bromophenyl)-1-(2-chlorophenyl)-4-(methylthio)-1H-pyrazol-3-yl)-5-(1-(trifluoromethyl)cyclobutyl)-1,3,4-thiadiazole], for which the concentration for half-maximal inhibition (IC50) was 7.77 nM.

Take `C[S+]([O-])c1c(-c2nnc(C(C)(C)C)o2)nn(-c2ccc(Cl)cc2Cl)c1-c1ccc(Cl)cc1` (stereo not drawn) [Example 41, 2-tert-butyl-5-(5-(4-chlorophenyl)-1-(2,4-dichlorophenyl)-4-(methylsulfinyl)-1H-pyrazol-3-yl)-1,3,4-oxadiazole]: under setting [1], the IC50 was determined as 30.4 nM.

Turning to `C[S+]([O-])c1c(-c2nnc(C3(C(F)(F)F)CC3)o2)nn(-c2ccc(Cl)cc2Cl)c1-c1ccc(Cl)cc1` (stereo not drawn) [Example 42, 2-(5-(4-chlorophenyl)-1-(2,4-dichlorophenyl)-4-(methylsulfinyl)-1H-pyrazol-3-yl)-5-(1-(trifluoromethyl)cyclopropyl)-1,3,4-oxadiazole], under setting [1], the half-maximal inhibitory concentration (IC50) came out at 24.6 nM.

Consider `C[S+]([O-])c1c(-c2nnc(C3(C(F)(F)F)CCC3)o2)nn(-c2ccc(Cl)cc2Cl)c1-c1ccc(Cl)cc1` (stereo not drawn) [Example 43, 2-(5-(4-chlorophenyl)-1-(2,4-dichlorophenyl)-4-(methylsulfinyl)-1H-pyrazol-3-yl)-5-(1-(trifluoromethyl)cyclobutyl)-1,3,4-oxadiazole], for which the IC50 under setting [1] was found to be 8.92 nM.

As to `C[S+]([O-])c1c(-c2nnc(C(C)(C)C)o2)nn(-c2ccccc2Cl)c1-c1ccc(Br)cc1` (stereo not drawn) [Example 53, 2-(5-(4-bromophenyl)-1-(2-chlorophenyl)-4-(methylsulfinyl)-1H-pyrazol-3-yl)-5-tert-butyl-1,3,4-oxadiazole], the IC50 under setting [1] worked out at 15.6 nM.

As to `C[S+]([O-])c1c(-c2nnc(C3(C(F)(F)F)CCC3)o2)nn(-c2ccccc2Cl)c1-c1ccc(Br)cc1` (stereo not drawn) [Example 55, 2-(5-(4-bromophenyl)-1-(2-chlorophenyl)-4-(methylsulfinyl)-1H-pyrazol-3-yl)-5-(1-(trifluoromethyl)cyclobutyl)-1,3,4-oxadiazole], the 50% inhibitory concentration (IC50) under setting [1] was determined as 6.51 nM.

In the case of `C[S+]([O-])c1c(-c2nnc(C(C)(C)C)s2)nn(-c2ccc(Cl)cc2Cl)c1-c1ccc(Cl)cc1` (stereo not drawn) [Example 60, 2-tert-butyl-5-(5-(4-chlorophenyl)-1-(2,4-dichlorophenyl)-4-(methylsulfinyl)-1H-pyrazol-3-yl)-1,3,4-thiadiazole], the IC50 under setting [1] was 19.1 nM.

On to `C[S+]([O-])c1c(-c2nnc(C3(C(F)(F)F)CC3)s2)nn(-c2ccc(Cl)cc2Cl)c1-c1ccc(Cl)cc1` (stereo not drawn) [Example 61, 2-(5-(4-chlorophenyl)-1-(2,4-dichlorophenyl)-4-(methylsulfinyl)-1H-pyrazol-3-yl)-5-(1-(trifluoromethyl)cyclopropyl)-1,3,4-thiadiazole], for which the half-maximal inhibitory concentration (IC50) under setting [1] worked out at 11.3 nM.

The values are drawn from patent publication US8309584B2, “Sulfur containing pyrazole-heterocycle derivatives as cannabinoid CB1 receptor antagonists” (Green Cross Corporation, priority 2008, dated 2012).
